Source: KR20110128542A, “Egcg를 유효성분으로 함유하는 쇼그렌 증후군, 베체트 증후군, 강직성척추염 또는 루프스의 예방 또는 치료용 조성물” (가톨릭대학교 산학협력단, priority 2010, dated 2011)
“Also recorded” adds a separate entry of the source.

Assays:
Treg cells (Treg 세포) [1] = experiment: Treg population in splenocytes of lupus syndrome mice under Treg differentiation conditions, FACS (CD4, CD25, Foxp3); assay type: cell-based; conditions: lupus mouse splenocytes, anti-CD3 2 ug/ml + TGF beta 5ng/ml, EGCG 10ng/ml, 72 h
[2] = test system: IL-17 produced from Th17 cells (Th17세포); experiment: IL-17 production by mouse splenocytes under Th17 differentiation conditions (ELISA of culture medium, 3 days); assay type: cell-based; conditions: Th17 conditions (anti-CD3, anti-CD28, anti-IFNr, anti-IL-4, TGF beta), EGCG 0, 1, 10, 50 uM, Fig. 1
Treg cells (Treg 세포) [3] = experiment: Treg cells in spleen of lupus syndrome mice, immunostaining (CD4, CD25, Foxp3) and confocal microscopy; assay type: in vivo, mouse; conditions: EGCG 10uM, intraperitoneal, 10 injections, Fig. 3
IL-17 mRNA = experiment: RT-PCR of IL-17 mRNA in mouse splenocytes under Th17 differentiation conditions; assay type: cell-based; conditions: EGCG 0, 1, 10, 50 ng/ml, Fig. 2a
Foxp3 mRNA = experiment: RT-PCR of Foxp3 mRNA in mouse splenocytes under Th17 differentiation conditions (Treg activation); assay type: cell-based; conditions: EGCG 0, 1, 10, 50 ng/ml, Fig. 2b
Th17 cells (Th17 세포) = experiment: Th17 cells in spleen of lupus syndrome mice, immunostaining (CD4, IL-17) and confocal microscopy; assay type: in vivo, mouse; conditions: EGCG 10uM, intraperitoneal, 10 injections, confocal microscopy, Fig. 3

With `O=C(O[C@@H]1Cc2c(O)cc(O)cc2O[C@@H]1c1cc(O)c(O)c(O)c1)c1cc(O)c(O)c(O)c1` [EGCG, (-)-epigallocatechin gallate] the fold induction at 0.01 µg/mL (Treg cells (Treg 세포) [1]; Splenocyte, printed 'about 10-fold or more', read-out: increase of Treg cells compared with untreated group) was ≥ 10, the Foxp3 expression (Treg cells (Treg 세포) [1]; untreated control 2.69, Fig. 4) was 21.57 and the “amount of IL-17 cytokine produced” value [2] was “EGCG를 처리하지 않은 군에 비해 현저하게 감소; also recorded: EGCG 농도 의존적으로 IL-17의 생성이 감소”. For the same compound, the “Treg cell activation in spleen” value (Treg cells (Treg 세포) [3]; CD4/CD25 co-expression) was “비장에서 Treg 세포가 활성화 되었음”, the “Foxp3 expression in nucleus, compared with control” value (Treg cells (Treg 세포) [3]; spleen, confocal microscopy) was “대조군에 비해 많이 발현” and the “IL-17 expression (mRNA)” value (IL-17 mRNA) was “농도 의존적으로 점점 감소”. The “Foxp3 expression (mRNA)” value (Foxp3 mRNA) was “EGCG를 처리하지 않은 군에 비해 현저하게 증가; also recorded: 농도 의존적으로 점점 증가” and the “IL-17 expression (degree of Th17 cell differentiation), compared with control” value (Th17 cells (Th17 세포)) was “EGCG를 처리하지 않은 대조군이 처리한 군에 비해 녹색의 IL-17이 더 많이 발현”.
